Measured values published in ChEMBL document CHEMBL2046292, “The macrocycle of leinamycin imparts hydrolytic stability to the thiol-sensing 1,2-dithiolan-3-one 1-oxide unit of the natural product” (Bioorg Med Chem Lett, 2012).

What was measured:
Type in all cases: physicochemical
[1] = Half life of the compound at 70 uM in MOPS aqueous buffer (300 mM, pH 7.0) containing MeCN (25% v/v) at 24 degC in presence of 700 uM GSH by HPLC analysis; details: pH 7, 70 µM
[2] = Half life of the compound at 70 uM in MOPS aqueous buffer (250 mM, pH 7.0) containing MeCN (25% v/v) at 24 degC by HPLC analysis; details: pH 7, 70 µM
[3] = Half life of the compound in sodium phosphate buffer (10 mM, pH 7.0) at 37 degC containing methanol (10% v/v)
[4] = Half life of the compound at 100 uM in HEPES buffer (250 mM, pH 7.0) at 24 degC containing no organic solvent

Row | Structure (SMILES) | t1/2 [1] | t1/2 [2] | half-life [3] | half-life at 100 µM [4]
1 | CC1(C)[S+]([O-])SC(=O)[C@@]1(C)O (stereo partly drawn) | 0.0467 h | 0.883 h | – | –
2 | CC1(C)[S+]([O-])SC(=O)[C@]1(C)O (stereo partly drawn) | 0.0633 h | 1.87 h | – | –
3 | C/C1=C\[C@@H](O)C(=O)/C=C/C=C\c2csc(n2)[C@@H](C)NC(=O)C[C@@]2(CC1)[S+]([O-])SC(=O)[C@]2(C)O (stereo partly drawn) [LEINAMYCIN] | 0.173 h | 27 h | 8 h | 16.1 h
